Assay results from US12600698B2, “Kinase inhibitors” (Vidya Therapeutics, Inc., priority 2021, dated 2026).

Each compound was assayed against T1, BTK (Homo sapiens, UniProt Q06187) (assay: BTK IC50 (EZ reader kinase assay)). Conditions: ATP 1 mM, BTK 2 nM, 90 minutes at room temperature.
Type: biochemical
Design: purchased Carna
Experimental: Solutions of compounds (test or control) in DMSO were prepared at the desired concentrations, and serially diluted to 11 concentrations by 3-fold dilution in 384pp-plate using TECAN EVO200. 20 nL of stock were transferred to 384 plate using Echo550. DMSO was used as vehicle control.
Two separate solutions were prepared—an ATP solution containing MgCl2 (10 mM), Brij-35 (0.01%), DTT (2 mM), BSA (0.05%), EGTA (1 mM), HEPE (pH7.5) (50 mM), FLPeptide (6 uM) and ATP (4 mM); and a BTK solution containing MgCl2 (10 mM), Brij-35 (0.01%), DTT (2 mM), BSA (0.05%), EGTA (1 mM), HEPE (pH7.5) (50 mM) and BTK (2.67 nM). (BTK was obtained from Carna; FLPeptide2 was obtained from PerkinElmer and Ibrutinib was obtained from Selleck.) 5 uL of ATP solution were added to each well, followed by addition of 15 uL of BTK solution to initiate the reaction. (Note the final volume of each well was 20 uL containing MgCl2 (10 mM), Brij-35 (0.01%), DTT (2 mM), BSA (0.05%), EGTA (1 mM), HEPE (pH7.5) (50 mM), FLPeptide (1.5 uM), ATP (1 mM) and BTK (2 nM). The plates were incubated at room temperature for 90 minutes and then stopping buffer added (75 uL, containing 0.5 M EDTA) to terminate the reaction. Samples from each well were analyzed using EZ reader.
The % remaining activity was calculated using read conversion ratio (CR) according to the equation: […]
XLFit (equation 201) was used to calculate IC50's by floating both bottom and top.
BTK IC50 values are provided in Table 5, for the compounds described in Examples 1-13, wherein: • “A” denotes an IC50<1 nM; • “B” denotes an IC50 1-10 nM; and • “C” denotes an IC50>10 nM.

T1 sequence (Q06187 whole entry): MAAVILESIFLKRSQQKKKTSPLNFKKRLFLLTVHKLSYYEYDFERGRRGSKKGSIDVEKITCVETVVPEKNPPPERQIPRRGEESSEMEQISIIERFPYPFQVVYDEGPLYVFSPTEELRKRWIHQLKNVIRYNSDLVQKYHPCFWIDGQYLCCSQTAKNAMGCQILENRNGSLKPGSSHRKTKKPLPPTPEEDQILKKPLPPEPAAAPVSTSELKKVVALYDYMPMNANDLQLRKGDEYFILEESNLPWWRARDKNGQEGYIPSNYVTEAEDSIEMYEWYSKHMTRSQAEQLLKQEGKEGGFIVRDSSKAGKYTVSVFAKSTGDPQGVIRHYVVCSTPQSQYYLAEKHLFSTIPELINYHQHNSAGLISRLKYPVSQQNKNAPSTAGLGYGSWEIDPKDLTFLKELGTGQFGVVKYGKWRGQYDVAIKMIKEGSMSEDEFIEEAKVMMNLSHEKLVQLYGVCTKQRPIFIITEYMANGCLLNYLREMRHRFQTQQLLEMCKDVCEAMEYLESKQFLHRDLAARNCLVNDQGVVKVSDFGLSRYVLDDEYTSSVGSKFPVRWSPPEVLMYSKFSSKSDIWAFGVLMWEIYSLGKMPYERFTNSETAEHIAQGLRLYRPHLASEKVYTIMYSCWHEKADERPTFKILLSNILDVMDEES

`CC#CC(=O)NC1CCC=C(c2c(F)cc(C(N)=O)c3[nH]c(C)c(Cl)c23)C1` (racemic) [1A(rac), 4-(5-(but-2-ynamido)cyclohex-1-en-1-yl)-3-chloro-5-fluoro-2-methyl-1H-indole-7-carboxamide] and `CC#CC(=O)NC1C=C(c2c(F)cc(C(N)=O)c3[nH]c(C)c(Cl)c23)CCC1` (racemic) [5B(rac), 4-(3-(but-2-ynamido)cyclohex-1-en-1-yl)-3-chloro-5-fluoro-2-methyl-1H-indole-7-carboxamide] fall in the same range of IC50: 1 to 10 nM for the first, 1 to 10 nM for the second.

`CC#CC(=O)N[C@@H]1CCC[C@H](c2c(F)cc(C(N)=O)c3[nH]c(C)c(Cl)c23)C1` (relative stereo) [Compound 6-(cis), 4-((cis)-3-(but-2-ynamido)cyclohexyl)-3-chloro-5-fluoro-2-methyl-1H-indole-7-carboxamide] and `CC#CC(=O)N[C@H]1CCC[C@H](c2c(F)cc(C(N)=O)c3[nH]c(C)c(Cl)c23)C1` (relative stereo) [Compound 6-(trans), 4-((trans)-3-(but-2-ynamido)cyclohexyl)-3-chloro-5-fluoro-2-methyl-1H-indole-7-carboxamide] fall in the same range of IC50: 1 to 10 nM for the first, 1 to 10 nM for the second.

`CC#CC(=O)N(C)[C@H]1CCC=C(c2c(F)cc(C(N)=O)c3[nH]c(C)c(C)c23)C1` [4A(S), (S)-5-fluoro-2,3-dimethyl-4-(5-(N-methylbut-2-ynamido)cyclohex-1-en-1-yl)-1H-indole-7-carboxamide] and `CC#CC(=O)N(C)[C@@H]1C=C(c2c(F)cc(C(N)=O)c3[nH]c(C)c(C)c23)CCC1` [4B(S), (S)-5-fluoro-2,3-dimethyl-4-(3-(N-methylbut-2-ynamido)cyclohex-1-en-1-yl)-1H-indole-7-carboxamide] fall in the same range of IC50: 1 to 10 nM for the first, 1 to 10 nM for the second.

First: CC#CC(=O)N[C@H]1C=C(c2c(F)cc(C(N)=O)c3[nH]c(C)c(Cl)c23)CCC1 [5B(R), (R)-4-(3-(but-2-ynamido)cyclohex-1-en-1-yl)-3-chloro-5-fluoro-2-methyl-1H-indole-7-carboxamide]
Second: CC#CC(=O)N[C@@H]1CCC[C@@H](c2c(F)cc(C(N)=O)c3[nH]c(C)c(Cl)c23)C1 [6-(1R,3R), 4-((1R,3R)-3-(but-2-ynamido)cyclohexyl)-3-chloro-5-fluoro-2-methyl-1H-indole-7-carboxamide]
The IC50 of the first is lower: 1 to 10 nM for the first, > 10 nM for the second. The first is the more potent here.

Compared with `CC#CC(=O)N[C@H]1CCC[C@H](c2c(F)c(F)c(C(N)=O)c3[nH]c(C)c(Cl)c23)C1` [11-(1S,3S), 4-[(1S,3S)-3-(but-2-ynoylamino)cyclohexyl]-3-chloro-5,6-difluoro-2-methyl-1H-indole-7-carboxamide], `CC#CC(=O)N[C@@H]1CCC[C@@H](c2c(F)c(F)c(C(N)=O)c3[nH]c(C)c(F)c23)C1` [Compound 8-(1R,3R), 4-((1R,3R)-3-(but-2-ynamido)cyclohexyl)-3,5,6-trifluoro-2-methyl-1H-indole-7-carboxamide] is lower in IC50: > 10 nM for the first, 1 to 10 nM for the second.

`CC#CC(=O)N[C@H]1CC[C@H](c2c(F)cc(C(N)=O)c3[nH]c(C)c(C)c23)C1` [12-(1S,3S), 4-((1S,3S)-3-(but-2-ynamido)cyclopentyl)-5-fluoro-2,3-dimethyl-1H-indole-7-carboxamide] and `CC#CC(=O)N[C@@H]1CC[C@H](c2c(F)cc(C(N)=O)c3[nH]c(C)c(C)c23)C1` [13-(1S,3R), 4-((1S,3R)-3-(but-2-ynamido)cyclopentyl)-5-fluoro-2,3-dimethyl-1H-indole-7-carboxamide] cannot be ordered by IC50: > 10 nM for the first, > 10 nM for the second.

First: CC#CC(=O)N[C@H]1CCC[C@H](c2c(F)c(F)c(C(N)=O)c3[nH]c(C)c(C#N)c23)C1 [Compound 7-(1S,3S), 4-((1S,3S)-3-(but-2-ynamido)cyclohexyl)-3-cyano-5,6-difluoro-2-methyl-1H-indole-7-carboxamide]
Second: CC#CC(=O)N[C@H]1CCC[C@@H](c2c(F)c(F)c(C(N)=O)c3[nH]c(C)c(F)c23)C1 [Compound 8-(1R,3S), 4-((1R,3S)-3-(but-2-ynamido)cyclohexyl)-3,5,6-trifluoro-2-methyl-1H-indole-7-carboxamide]
The IC50 of the first is higher: > 10 nM for the first, 1 to 10 nM for the second.

`CC#CC(=O)N[C@@H]1CCC[C@H](c2c(F)c(F)c(C(N)=O)c3[nH]c(C)c(F)c23)C1` [Compound 8-(1S,3R), 4-((1S,3R)-3-(but-2-ynamido)cyclohexyl)-3,5,6-trifluoro-2-methyl-1H-indole-7-carboxamide] and `CC#CC(=O)N[C@H]1CCC[C@H](c2c(F)c(F)c(C(N)=O)c3[nH]c(C)c(F)c23)C1` [Compound 8-(1S,3S), 4-((1S,3S)-3-(but-2-ynamido)cyclohexyl)-3,5,6-trifluoro-2-methyl-1H-indole-7-carboxamide] cannot be ordered by IC50: > 10 nM for the first, > 10 nM for the second.

`CC#CC(=O)N[C@@H]1CCC[C@@H](c2c(F)c(F)c(C(N)=O)c3[nH]c(C)c(C)c23)C1` [Compound 9-(1R,3R), 4-((1R,3R)-3-(but-2-ynamido)cyclohexyl)-5,6-difluoro-2,3-dimethyl-1H-indole-7-carboxamide] and `CC#CC(=O)N[C@H]1CCC[C@@H](c2c(F)c(F)c(C(N)=O)c3[nH]c(C)c(C)c23)C1` [Compound 9-(1R,3S), 4-((1R,3S)-3-(but-2-ynamido)cyclohexyl)-5,6-difluoro-2,3-dimethyl-1H-indole-7-carboxamide] cannot be ordered by IC50: > 10 nM for the first, > 10 nM for the second.

`CC#CC(=O)N[C@@H]1CCC[C@H](c2c(F)c(F)c(C(N)=O)c3[nH]c(C)c(C)c23)C1` [Compound 9-(1S,3R), 4-((1S,3R)-3-(but-2-ynamido)cyclohexyl)-5,6-difluoro-2,3-dimethyl-1H-indole-7-carboxamide] and `CC#CC(=O)N[C@H]1CCC[C@H](c2c(F)c(F)c(C(N)=O)c3[nH]c(C)c(C)c23)C1` [Compound 9-(1S,3S), 4-((1S,3S)-3-(but-2-ynamido)cyclohexyl)-5,6-difluoro-2,3-dimethyl-1H-indole-7-carboxamide] fall in the same range of IC50: 1 to 10 nM for the first, 1 to 10 nM for the second.

Each compound was assayed against T1, BTK (assay: Assay to determine BTK inactivation rate (active site probe ELISA, human whole blood)). Conditions: 37° C., 5-60 minutes, read-out: BTK hWB (Kinact/Ki).
Type: cell-based
Design: tissue StemExpress; host or cells: human whole blood
Experimental: This example employed a BTK active site probe-based assay using a biotinylated covalent inhibitor in human and mouse blood or mouse brain lysate.
Human whole blood was obtained from StemExpress (Stockton, CA) and kept at ambient temperature until the time of the experiment, which was approximately 24 hours after it had been collected. • 1. A 1× lysis buffer was prepared by using 10× lysis buffer (Cell Signaling Technology, #9083S, Danvers, MA), molecular biology grade water, 100× Halt Protease and Phosphatase Inhibitor Cocktail, (ThermoFisher, #78440, Waltham, MA), and BTK active site probe (final: 0.4 μM). This was prepared fresh each experimental day. • 2. Lysis buffer was added in the volume of 30 μL to all wells in a V-bottom plate (Greiner Bio-One, #651261, Monroe, NC) in preparation for timepoint collections. • 3. Compounds were reconstituted to stocks of 10 mM in 100% DMSO and were diluted in 2-fold serial dilutions to generate an 8-point curve in DMSO, with the last point being DMSO only. • 4. A working 10× dilution series was created using 1 μL of the prepared DMSO titration into […] 1×PBS in order to keep the DMSO constant (0.03% DMSO final). • 5. The whole blood was added in the volume of 225 μL per well in a new 96 w v-bottom plate. • 6. For compound treatment, 25 μL of the 10× dilution series in PBS was added to the 225 μL whole blood, followed by briefly pipetting up and down, twice. • 7. The plates were then covered with plastic lids and incubated at 37° C. for 5, 10, 15, 30, 60 minutes. • 8. At each timepoint, 30 μL of compound- or DMSO (vehicle)-treated blood is pulled from each column and added to preloaded collection plates that contained 30 μL of lysis buffer supplemented with BTK active site probe. Samples were then mixed briefly by pipetting up and down, twice. • 9. The plates with collected and lysed samples were shaken and covered with sealing film on a rotator for 60 minutes at room temperature. These samples were used fresh for detection via ELISA, and remaining sample was frozen at −80° C. if a repeat was necessary. Determining Amount of Unoccupied BTK Using ELISA • 1. All streptavidin pre-coated plates (R&D Systems, #CP004, Minneapolis, MN) were brought to room temperature while samples are lysing. • 2. Assay Buffer 1, 1×PBS+0.05% Tween 20+1% BSA was prepared, filtered, and stored at 4° C. when not in use. • 3. Using this Assay Buffer 1, assay buffer+1× protease/phosphatase inhibitor cocktail (PICS) was prepared in the amount needed for all samples. • 4. Assay Buffer+PICS in the volume of 90 μL/well was added to the ELISA plate for blood samples. • 5. Assay Buffer+PICs in the volume of 50 μL/well was added to the ELISA plate for brain samples. • 6. Lysed blood sample (10 μL) was added to the ELISA plate. • 7. Lysed brain sample (50 μL) was added to the ELISA plate. • 8. Samples were loaded into the ELISA plate for a total of 100 μL/well, in duplicate, and remained in the plate, sealed, overnight at 4° C. • 9. The following day, the plate was washed three times with 1× Wash Buffer (1×PBS+0.05% Tween 20) at 250 μL/well using a plate washer. • 10. The plate was inverted to expel all fluid each time and blotted on clean paper towels to remove remaining liquid. • 11. Assay Buffer 2 was prepared (1×PBS+0.05% Tween 20+0.5% BSA) and kept at 4° C. when not in use. • 12. The primary antibody α-BTK (clone D3H5, Cell Signaling Technology #8547S Danvers, MA) was diluted 1:500 in Assay Buffer 2. • 13. Diluted a-BTK antibody was added at 100 μL/well. • 14. The plate was covered with adhesive film and incubated for 90 minutes at room temperature. • 15. The plate was washed three times with 1× Wash Buffer at 250 μL/well using a plate washer. • 16. The plate was inverted to expel all fluid each time and blotted on clean paper towels to remove remaining liquid. • 17. The detection antibody (Jackson Immuno Research, #711-005-152) was diluted 1:2,500 with Assay Buffer 2. • 18. The diluted antibody was added at 100 μL/well. • 19. […]

For `CC#CC(=O)N[C@@H]1CCC[C@H](c2c(F)cc(C(N)=O)c3[nH]c(C)c(Cl)c23)C1` (relative stereo) [Compound 6-(cis), 4-((cis)-3-(but-2-ynamido)cyclohexyl)-3-chloro-5-fluoro-2-methyl-1H-indole-7-carboxamide], the kinact/KI was < 8330 M⁻¹ s⁻¹.
